Reference: ChEMBL document CHEMBL3994622, “Design and synthesis of new RAF kinase-inhibiting antiproliferative quinoline derivatives. Part 2: Diarylurea derivatives” (Eur J Med Chem, 2017)

Assays:
Assay type in all cases: functional
HL-60(TB) [1] = experiment: Growth inhibition of human HL-60(TB) cells assessed as cell growth at 0.01 uM incubated for 48 hrs by sulforhodamine B assay relative to control; conditions: HL-60, 48 h, read-out: Activity
SNB-75 = experiment: Growth inhibition of human SNB75 cells assessed as cell growth at 0.01 uM incubated for 48 hrs by sulforhodamine B assay relative to control; conditions: SNB-75, 48 h, read-out: Activity
BT-549 = experiment: Growth inhibition of human BT549 cells assessed as cell growth at 0.01 uM incubated for 48 hrs by sulforhodamine B assay relative to control; conditions: BT-549, 48 h, read-out: Activity
NCI-H460 [2] = experiment: Growth inhibition of human NCI-H460 cells assessed as cell growth at 0.1 uM incubated for 48 hrs by sulforhodamine B assay relative to control; conditions: NCI-H460, 48 h, read-out: Activity
TK-10 [3] = experiment: Growth inhibition of human TK10 cells assessed as cell growth at 0.1 uM incubated for 48 hrs by sulforhodamine B assay relative to control; conditions: TK-10, 48 h, read-out: Activity
PC-3 = experiment: Growth inhibition of human PC3 cells assessed as cell growth at 0.1 uM incubated for 48 hrs by sulforhodamine B assay relative to control; conditions: PC-3, 48 h, read-out: Activity
MCF7 [4] = experiment: Growth inhibition of human MCF7 cells assessed as cell growth at 0.1 uM incubated for 48 hrs by sulforhodamine B assay relative to control; conditions: MCF7, 48 h, read-out: Activity
HL-60(TB) [5] = experiment: Growth inhibition of human HL-60(TB) cells assessed as cell growth at 1 uM incubated for 48 hrs by sulforhodamine B assay relative to control; conditions: HL-60, 48 h, read-out: Activity
NCI-H460 [6] = experiment: Growth inhibition of human NCI-H460 cells assessed as cell growth at 1 uM incubated for 48 hrs by sulforhodamine B assay relative to control; conditions: NCI-H460, 48 h, read-out: Activity
HCT-15 = experiment: Growth inhibition of human HCT15 cells assessed as cell growth at 1 uM incubated for 48 hrs by sulforhodamine B assay relative to control; conditions: HCT-15, 48 h, read-out: Activity
IGROV-1 = experiment: Growth inhibition of human IGROV1 cells assessed as cell growth at 1 uM incubated for 48 hrs by sulforhodamine B assay relative to control; conditions: IGROV-1, 48 h, read-out: Activity
TK-10 [7] = experiment: Growth inhibition of human TK10 cells assessed as cell growth at 1 uM incubated for 48 hrs by sulforhodamine B assay relative to control; conditions: TK-10, 48 h, read-out: Activity
EKVX = experiment: Growth inhibition of human EKVX cells assessed as cell growth at 10 uM incubated for 48 hrs by sulforhodamine B assay relative to control; conditions: read-out: Activity
KM12 [8] = experiment: Growth inhibition of human KM12 cells assessed as cell growth at 10 uM incubated for 48 hrs by sulforhodamine B assay relative to control; conditions: KM12, 48 h, read-out: Activity
SF-268 = experiment: Growth inhibition of human SF268 cells assessed as cell growth at 10 uM incubated for 48 hrs by sulforhodamine B assay relative to control; conditions: SF-268, 48 h, read-out: Activity
MDA-MB-231 = experiment: Growth inhibition of human MDA-MB-231 cells assessed as cell growth at 10 uM incubated for 48 hrs by sulforhodamine B assay relative to control; conditions: MDA-MB-231, 48 h, read-out: Activity
NCI-H226 [9] = experiment: Growth inhibition of human NCI-H226 cells assessed as cell growth at 100 uM incubated for 48 hrs by sulforhodamine B assay relative to control; conditions: NCI-H226, 48 h, read-out: Activity
SNB-19 = experiment: Growth inhibition of human SNB19 cells assessed as cell growth at 100 uM incubated for 48 hrs by sulforhodamine B assay relative to control; conditions: SNB-19, 48 h, read-out: Activity
SK-MEL-2 [10] = experiment: Growth inhibition of human SK-MEL-2 cells assessed as cell growth at 0.003 uM incubated for 48 hrs by sulforhodamine B assay relative to control; conditions: SK-MEL-2, 48 h, read-out: Activity
OVCAR-3 [11] = experiment: Growth inhibition of human OVCAR3 cells assessed as cell growth at 0.003 uM incubated for 48 hrs by sulforhodamine B assay relative to control; conditions: OVCAR-3, 48 h, read-out: Activity
UO-31 = experiment: Growth inhibition of human UO31 cells assessed as cell growth at 0.003 uM incubated for 48 hrs by sulforhodamine B assay relative to control; conditions: UO-31, 48 h, read-out: Activity
K562 = experiment: Growth inhibition of human K562 cells assessed as cell growth at 0.03 uM incubated for 48 hrs by sulforhodamine B assay relative to control; conditions: K562, 48 h, read-out: Activity
SR [12] = experiment: Growth inhibition of human SR cells assessed as cell growth at 0.03 uM incubated for 48 hrs by sulforhodamine B assay relative to control; conditions: read-out: Activity
OVCAR-4 [13] = experiment: Growth inhibition of human OVCAR4 cells assessed as cell growth at 0.03 uM incubated for 48 hrs by sulforhodamine B assay relative to control; conditions: OVCAR-4, 48 h, read-out: Activity
CCRF-CEM = experiment: Growth inhibition of human CCRF-CEM cells assessed as cell growth at 0.3 uM incubated for 48 hrs by sulforhodamine B assay relative to control; conditions: read-out: Activity
NCI-H226 [14] = experiment: Growth inhibition of human NCI-H226 cells assessed as cell growth at 0.3 uM incubated for 48 hrs by sulforhodamine B assay relative to control; conditions: NCI-H226, 48 h, read-out: Activity
KM12 [15] = experiment: Growth inhibition of human KM12 cells assessed as cell growth at 0.3 uM incubated for 48 hrs by sulforhodamine B assay relative to control; conditions: KM12, 48 h, read-out: Activity
MDA-MB-435 = experiment: Growth inhibition of human MDA-MB-435 cells assessed as cell growth at 0.3 uM incubated for 48 hrs by sulforhodamine B assay relative to control; conditions: MDA-MB-435, 48 h, read-out: Activity
SK-MEL-2 [16] = experiment: Growth inhibition of human SK-MEL-2 cells assessed as cell growth at 0.3 uM incubated for 48 hrs by sulforhodamine B assay relative to control; conditions: SK-MEL-2, 48 h, read-out: Activity
OVCAR-3 [17] = experiment: Growth inhibition of human OVCAR3 cells assessed as cell growth at 0.3 uM incubated for 48 hrs by sulforhodamine B assay relative to control; conditions: OVCAR-3, 48 h, read-out: Activity
MCF7 [18] = experiment: Growth inhibition of human MCF7 cells assessed as cell growth at 0.3 uM incubated for 48 hrs by sulforhodamine B assay relative to control; conditions: MCF7, 48 h, read-out: Activity
SR [19] = experiment: Growth inhibition of human SR cells assessed as cell growth at 3 uM incubated for 48 hrs by sulforhodamine B assay relative to control; conditions: read-out: Activity
OVCAR-4 [20] = experiment: Growth inhibition of human OVCAR4 cells assessed as cell growth at 3 uM incubated for 48 hrs by sulforhodamine B assay relative to control; conditions: OVCAR-4, 48 h, read-out: Activity
NCI-H322M = experiment: Growth inhibition of human NCI-H322M cells assessed as cell growth at 30 uM incubated for 48 hrs by sulforhodamine B assay relative to control; conditions: read-out: Activity
UACC-62 = experiment: Growth inhibition of human UACC62 cells assessed as cell growth at 30 uM incubated for 48 hrs by sulforhodamine B assay relative to control; conditions: UACC-62, 48 h, read-out: Activity

Row | SMILES | growth at 0.01 µM (HL-60(TB) [1]) [%] | growth at 0.01 µM (SNB-75) [%] | growth at 0.01 µM (BT-549) [%] | growth at 0.1 µM (NCI-H460 [2]) [%] | growth at 0.1 µM (TK-10 [3]) [%] | growth at 0.1 µM (PC-3) [%] | growth at 0.1 µM (MCF7 [4]) [%] | growth at 1 µM (HL-60(TB) [5]) [%] | growth at 1 µM (NCI-H460 [6]) [%] | growth at 1 µM (HCT-15) [%] | growth at 1 µM (IGROV-1) [%] | growth at 1 µM (TK-10 [7]) [%] | growth at 10 µM (EKVX) [%] | growth at 10 µM (KM12 [8]) [%] | growth at 10 µM (SF-268) [%] | growth at 10 µM (MDA-MB-231) [%] | growth at 100 µM (NCI-H226 [9]) [%] | growth at 100 µM (SNB-19) [%] | growth at 0.003 µM (SK-MEL-2 [10]) [%] | growth at 0.003 µM (OVCAR-3 [11]) [%] | also measured
1 | COc1cc2cc(Oc3ccc(NC(=O)Nc4cc(C(F)(F)F)cc(C(F)(F)F)c4)cc3)c(C)nc2cc1OC | 89 | 81 | 91 | 107 | 89 | 89 | 92 | 72 | 49 | 41 | 31 | 81 | -55 | -75 | -61 | -83 | -52 | -79 | – | – | –
2 | Cc1nc2cc(O)c(O)cc2cc1Oc1ccc(NC(=O)Nc2ccc(Cl)c(Cl)c2)cc1 | – | – | – | – | – | – | – | – | – | – | – | – | – | – | – | – | – | – | 107 | 105 | growth at 0.003 µM (UO-31): 91%; growth at 0.03 µM (K562): 110%; growth at 0.03 µM (SR [12]): 99%; growth at 0.03 µM (OVCAR-4 [13]): 98%; growth at 0.3 µM (CCRF-CEM): 98%; growth at 0.3 µM (NCI-H226 [14]): 97%; growth at 0.3 µM (KM12 [15]): 104%; growth at 0.3 µM (MDA-MB-435): 90%; growth at 0.3 µM (SK-MEL-2 [16]): 118%; growth at 0.3 µM (OVCAR-3 [17]): 109%; growth at 0.3 µM (MCF7 [18]): 86%; growth at 3 µM (SR [19]): 28%; growth at 3 µM (OVCAR-4 [20]): 87%; growth at 30 µM (NCI-H322M): 19%; growth at 30 µM (UACC-62): -78%
3 | COc1cc2cc(Oc3ccc(NC(=O)Nc4ccc(Cl)c(Cl)c4)cc3)c(C)nc2cc1OC | 104 | 89 | 78 | 103 | 121 | 95 | 92 | 107 | 82 | 88 | 110 | 114 | -2 | 8 | 44 | 8 | -85 | -41 | – | – | –
4 | COc1cc2cc(Oc3ccc(NC(=O)Nc4ccc(Cl)c(C(F)(F)F)c4)cc3)c(C)nc2cc1OC | – | – | – | – | – | – | – | – | – | – | – | – | – | – | – | – | – | – | 96 | 100 | growth at 0.003 µM (UO-31): 87%; growth at 0.03 µM (K562): 102%; growth at 0.03 µM (SR [12]): 92%; growth at 0.03 µM (OVCAR-4 [13]): 96%; growth at 0.3 µM (CCRF-CEM): 101%; growth at 0.3 µM (NCI-H226 [14]): 106%; growth at 0.3 µM (KM12 [15]): 96%; growth at 0.3 µM (MDA-MB-435): 91%; growth at 0.3 µM (SK-MEL-2 [16]): 101%; growth at 0.3 µM (OVCAR-3 [17]): 95%; growth at 0.3 µM (MCF7 [18]): 97%; growth at 3 µM (SR [19]): -9%; growth at 3 µM (OVCAR-4 [20]): 23%; growth at 30 µM (NCI-H322M): -86%; growth at 30 µM (UACC-62): -75%
